Patent US8404665B2, “In vivo use of glutathione S-transferase activated nitric oxide donors” (University of Utah Research Foundation, priority 2002, dated 2013)
Like-named read-outs stand apart in the source and are kept apart here.

Columns and labels:
HL-60 cells [1] = assay: HL-60 leukemia cell growth (Coulter counter or MTT assay); assay type: cell-based, human; settings: for cell growth, % of untreated control cells: HL-60, MTT, three days
Protocol: Cell Lines and Culture Conditions. HL-60, DLD1, and U937 cells were obtained from ATCC (Rockville, Md.). Meth A cells were from Dr. Wolfram Samlowski (University of Utah, Salt Lake City, Utah). The PPC-1 cell line was provided by Dr. Graeme Bolger (University of Alabama, Birmingham, Ala.). For the cell growth and apoptosis experiments, cells were cultured at a density of 150,000 cells/ml in RPMI-1640 with 10% fetal bovine serum at 37° C. in a 5% CO2 humidified atmosphere. Agents were added at the indicated concentrations 24 h after culture initiation. At the indicated time intervals, cells were harvested and washed twice in phosphate buffered saline (PBS) prior to processing for analysis of growth, differentiation, and apoptosis.
Cell Growth, Differentiation and Apoptosis Assays. The number of viable cells was determined using the MTT assay according to the manufacturer's protocol (Promega, Madison, Wis.) or using a Coulter counter. Briefly, a MTT assay is an analytical technique that uses the dye dimethylthiazolyl-diphenyltetrazolium (MTT) which turns from yellow to brownish-purple as it is reduced in the mitochondria of living cells. The assay is useful in calorimetric quantitation of cell viability and proliferation. In contrast, cell differentiation was evaluated using Wright and Non-Specific Esterase (NSE) staining of cells collected on microscope slides by cytospin as previously described (Magrinat, G. et al. (1992) Blood 80: 1880-1884). Apoptosis was assayed by flow cytometry and by determining DNA fragmentation using agarose gel electrophoresis as previously described (Shami, P. J. et al. (1998) Leukemia 12: 1461-1466). For the flow cytometry assay, we used the propidium iodide staining method of Nicoletti et al. (Nicoletti, I. et al. (1991) J. Immunol. Methods 139: 271-279).
For the initial screen, HL60 cells were cultured in triplicate in RPMI1640/10% FBS under standard conditions. Compounds were added to the cultures at the following concentrations: 0, 0.1, 1, 10, and 100 micromolar (uM). Three days after addition of the compounds cell growth was determined either using a Coulter counter or using the MTT assay.
The antiproliferative effects in the human AML (Acute Myeloid Leukemia) cell lines, HL-60 (myeloid leukemia) and U937 (monoblastic leukemia) cells were treated with JS-K for a period of 3 days, upon which cell growth was evaluated using a Coulter counter (CITY, STATE). JS-K was added to HL-60 cells at 0, 0.25, 0.5, 0.75, and 1.0 μM concentrations. […] Similar results were obtained in U937 cells under similar conditions.

HL-60 cells [2] = assay: Systemic leukemia model: NOD/SCID mice injected intravenously with HL-60 cells; assay type: in vivo
Protocol: A second experiment was conducted with NOD/SCID mice injected intravenously with HL-60 cells. Control mice appeared to develop systemic disease as evidenced by large abdominal lymph nodes and leukemia cell engraftment in the liver, spleen and bone marrow. Treated mice were administered 1 μmol/kg intravenous JS-K for three to four weeks beginning one day after inoculation. Control mice were treated with vehicle. A human-specific anti-CD15 antibody was utilized in flow cytometric analysis to identify the leukemic cells. […] Additionally, the number and size of enlarged abdominal lymph nodes appeared to be smaller in these animals.

hGSTP1-1 = biological target: T1, hGSTP1-1 (Homo sapiens, UniProt P09211); assay: GST-catalysed GSH conjugation of JS-K and NO release; assay type: biochemical
T1 construct: purchased Panvera (Madison, Wis.)
T1 sequence (P09211 2-210 limits assumed): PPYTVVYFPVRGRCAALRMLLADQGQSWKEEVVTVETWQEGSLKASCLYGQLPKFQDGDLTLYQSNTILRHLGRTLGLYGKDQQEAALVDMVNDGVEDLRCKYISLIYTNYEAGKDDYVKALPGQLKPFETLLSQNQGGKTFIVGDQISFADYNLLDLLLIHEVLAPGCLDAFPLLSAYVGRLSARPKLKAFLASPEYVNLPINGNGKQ
Protocol: (§1) Determination of Specific Activity of Human GSTs Toward JS-K. Purified preparations of recombinant hGSTA1-1, hGSTM1-1 and hGSTP1-1 were obtained from Panvera (Madison, Wis.). The activity of human GST toward CDNB was determined, as described by Habig et al. (Habig, W. H. et al. (1974) J. Biol. Chem. 249: 7130-7139), prior to activity measurements with JS-K to ensure that the enzyme preparations were catalytically active. For activity measurement toward JS-K, the reaction mixture in a final volume of 1 ml contained 100 mM potassium phosphate buffer (pH 6.5), 1 mM GSH, 0.045 mM JS-K, and an appropriate amount of human GST isoenzyme protein. The reaction was started by the addition of JS-K, and the rate of reaction was monitored by measuring decrease in absorbance of JS-K at 298 nm due to its utilization during reaction with GSH. The specific activity toward JS-K was calculated using an extinction coefficient of 18 mM^−1 cm^−1 at 298 nm.
(§2) Measurement of NO Release. Chemiluminescence detection and quantification of NO evolving from the reactions of JS-K were conducted using an NO-specific Thermal Energy Analyzer (Model 502A, Thermedics, Analytical Instrument Division, Waltham, Mass.) essentially as previously described (Keefer, L. K. et al. (1996) Methods Enzymol. 268: 281-293). Briefly, pH 7.4 phosphate buffer containing 1 mM GSH was sparged with inert gas until a steady detector response was established. Where indicated, GSTs were added to a final concentration of 1.67 ug of enzyme/ml. The NO release profile was followed at 37° C. for 45 min after injecting JS-K at a final concentration of 133 nM to start the reaction. The resulting curve was integrated to quantify the amount of NO released/mole of compound.

hGSTA1-1 = biological target: T2, hGSTA1-1 (Homo sapiens, UniProt P08263); assay: as above; assay type: biochemical
T2 sequence (P08263 1-222): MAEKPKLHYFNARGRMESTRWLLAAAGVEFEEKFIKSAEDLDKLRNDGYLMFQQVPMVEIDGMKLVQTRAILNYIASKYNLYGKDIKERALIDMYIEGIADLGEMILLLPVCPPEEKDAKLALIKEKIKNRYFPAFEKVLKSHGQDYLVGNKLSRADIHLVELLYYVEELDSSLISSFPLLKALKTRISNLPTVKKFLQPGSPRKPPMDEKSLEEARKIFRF
Protocol: as §1, §2

hGSTM1-1 = biological target: T3, hGSTM1-1 (Homo sapiens, UniProt P09488); assay: as above; assay type: biochemical
T3 construct: purchased Panvera (Madison, Wis.)
T3 sequence (P09488 2-218): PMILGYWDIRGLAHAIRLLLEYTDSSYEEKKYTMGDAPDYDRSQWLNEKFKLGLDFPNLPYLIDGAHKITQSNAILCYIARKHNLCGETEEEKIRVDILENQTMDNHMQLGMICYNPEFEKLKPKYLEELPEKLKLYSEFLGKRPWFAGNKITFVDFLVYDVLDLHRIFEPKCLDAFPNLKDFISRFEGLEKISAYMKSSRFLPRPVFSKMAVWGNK
Protocol: as §1, §2

[3] = 1 μmol/kg intravenous for three to four weeks, versus controls

## CCOC(=O)N1CCN(/[N+]([O-])=N/Oc2ccc([N+](=O)[O-])cc2[N+](=O)[O-])CC1 [JS-K, O^2-(2,4-dinitrophenyl) 1-[(4-ethoxycarbonyl)piperazin-1-yl]diazen-1-ium-1,2-diolate]
HL-60 cells [1]; HL-60, 3 days, Coulter counter, mean of 3 studies, read-out: IC50, cell growth
  IC50: 220 nM
HL-60 cells [1]; 0.75 uM
  cell growth, % of untreated control cells: 28+/−0.79%
HL-60 cells [1]; 0.75 uM JS-K together with 50 uM C-VAD-FMK
  cell growth, % of untreated control cells: 79+/−2.4%
HL-60 cells [1]; HL-60, initial screen, at three days, read-out: 50% growth inhibitory concentration (IC50)
  IC50: 220 nM
HL-60 cells [1]; HL-60, pretreatment 2-6 h with NAC
  JS-K-induced growth inhibition after NAC pretreatment: prevented the JS-K-induced growth inhibition
HL-60 cells [1]; HL-60, pretreatment with BSO for 2-6 h
  JS-K-induced growth inhibition after BSO pretreatment: did not appear to prevent the JS-K-induced growth inhibition
HL-60 cells [1]; HL-60, pretreatment with BSO for 24 h
  JS-K-induced growth inhibition after BSO pretreatment: appeared to enhance the effects
HL-60 cells [1]; HL-60 assay system, comparison with chemotherapeutic agents, read-out: IC50, growth inhibition
  IC50: 500 nM
HL-60 cells [2]; 1 μmol/kg intravenous
  colonies from cultured bone marrow in human hematopoietic cell-selective semi-solid medium: few if any colonies of cancerous cells
HL-60 cells [2]; [3]
  leukemic cell engraftment (anti-CD15 flow cytometry): decreased leukemic cell engraftment in the bone marrow and liver
  number and size of enlarged abdominal lymph nodes: smaller
HL-60 cells [2]; three to four weeks after inoculation
  treated mice with almost no evidence of disease: Two of the five
hGSTP1-1; hGSTP1-1
  catalysis of NO release from JS-K with GSH: only weakly
hGSTP1-1; recombinant hGSTP1-1
  activity for GSH conjugation of JS-K: much less active than hGSTA1-1 or hGSTM1-1
hGSTP1-1; up to 80 uM JS-K
  effect of JS-K exposure on enzyme's ability to catalyze CDNB's conjugation with GSH: unfettered ability
hGSTA1-1
  catalysis of JS-K conjugation: much superior to hGSTP1-1
hGSTM1-1
  catalysis of JS-K conjugation: much superior to hGSTP1-1
